# Experimental data from patent US11541121B2, “Phosphorothioate-conjugated peptides and methods of using the same” (CITY OF HOPE, priority 2017, dated 2023).
# Where no end group is shown, it is not given here. [ ]: non-standard residue; d: D form. pY = N[C@@H](Cc1ccc(OP(=O)(O)O)cc1)C(=O)O
# Columns and labels:
# [1] = test system: IL-6/gp130 signaling; EGFR signaling; experiment: IL-6 versus EGF stimulated signaling in HepG2 cells (STAT3 and MAPK p42/44 Western blot); type: cell-based, human; conditions: 1.0 μM, 30 min prior to IL-6 or EGF stimulation
# Procedure: Human hepatoma cells HepG2 were treated as indicated with 1.0 μM gp130-peptide peptide (i.e., 65 is phosphorothioate elongated SEQ ID NO:4, 96 is phosphorothioate elongated SEQ ID NO:8, and 63 is phosphorothioate elongated SEQ ID NO:9) for either 30 min prior to IL-6 or EGF stimulation. Whole cell lysates were subjected to electrophoretic protein separation and STAT3 as well as MAPK (p42/44) activity was assessed by Western blot. Total STAT3 and MAPK (p42/44) protein staining was included as a loading control.
# pY-STAT3 = pY-STAT3 Western blot in IL-6 stimulated HepG2 cells; type: cell-based, human; conditions: 1.0 μM, 30 min prior to IL-6 stimulation
# Procedure: FIG. 16: gp130-peptide treatment of cancer cells inhibits pY-STAT3 activation. Human hepatoma cells HepG2 were treated as indicated with 1.0 μM gp130-peptide peptide (i.e., 2263165 is phosphorothioate elongated SEQ ID NO:4, 1209196 is phosphorothioate elongated SEQ ID NO:8, and 2263163 is phosphorothioate elongated SEQ ID NO:9) for either 30 min prior to IL-6 stimulation. Whole cell lysates were subjected to electrophoretic protein separation and STAT3 activity was assessed by Western blot detecting phospho-tyrosine. Total STAT3 protein staining was included as a loading control.
# Human hepatoma cells HepG2 were treated as indicated with 1.0 uM gp130-peptide for either 30 min prior to IL-6 stimulation. Whole cell lysates were subjected to electrophoretic protein separation and STAT3 activity was assessed by Western blot detecting phospho-tyrosine. Total STAT3 protein staining was included as a loading control.
# [2] = test system: survivin (BIRC5) and BclXL (BCL2L1); experiment: RT-PCR of cancer cell survival genes in HepG2 cells; type: cell-based, human; conditions: 1.0 μM, 24 h upon IL-6 stimulation
# Procedure: (§1) Human hepatoma cells HepG2 were treated as indicated with 1.0 μM gp130-peptide (i.e., IL6-65 represents phosphorothioate elongated SEQ ID NO:4, IL6-96 represents phosphorothioate elongated SEQ ID NO:8, and IL-63 represents phosphorothioate elongated SEQ ID NO:9) for 24 h upon IL-6 stimulation. mRNA was isolated and target gene expression was assessed by RT-PCR. SD shown; T-test: ***) P<0.001.
# [3] = test system: IL-6/gp130/STAT3 target genes; experiment: RT-PCR of IL-6/gp130/STAT3 acute-phase target genes in IL-6 stimulated HepG2 cells; type: cell-based, human; conditions: 1.0 μM, 24 h upon IL-6 stimulation
# Procedure: as §1, with “T-test: *) P<0.05, **) P<0.01,” for “T-test:”
# Interleukin-6 (IL-6) signaling feeds intracellular STAT3 activity by binding to the extracellular domain of IL-6Ralpha (gp80) recruiting the signaling co-receptors IL-6Rbeta (gp130). IL-6 engagement to these receptors leads to the phosphorylation of 6 tyrosine residues in the cytoplasmic tail of gp130; 3 of those phospho-tyrosines (pY767, pY905 and pY915) serve as the major docking sites recognized by STAT3s SH2 domain initiating STAT3 intracellular signaling. Applicants disclose these three gp130-peptides modified by phosphorothioated ssDNA extension (FIG. 13) considerably reduce expression of a repertoire of IL-6/gp130/STAT3 target genes orchestrating the acute-phase inflammatory response (FIG. 15) once they undergo cellular internalization (FIG. 14).
# [4] = test system: W76964 (mouse pancreatic cancer cell line) cells; experiment: Cell penetration in W76964 cells (flow cytometry); type: cell-based; conditions: 1×10^6 cells, 10 μg, 2 hours at 37° C.
# Procedure: FIGS. 29A-29B: Combination treatment of cell-penetrating Gp130-inhibitory peptide (i.e., Gp130 peptide) and c-MYC-inhibitory peptide (i.e., c-MYC binding peptide) (SEQ ID NO:10) suppresses tumor growth in a syngeneic mouse model of pancreatic cancer. FIG. 29A. […] 1×10^6 cells were incubated with 10 μg of PS-GP130- or PS-c-MYC-peptide for 2 hours at 37° C. […] FIG. 29B. W76964 cells were engrafted in C57BL/6 mice to generate tumors. After tumor size reached approximately 80 mm^3, PO-Gp130 or PS-GP130 was mixed with PS-c-MYC-inhibitory peptide (1:1 ratio) to treat mice systemically (i.v.) at 20 μg every other day. Tumor size was measured by a caliber. Tumor volume was calculated (V=(L×W×W)), where V is tumor volume, W is tumor width, L is tumor length. When some tumors start to reach 600 mm^3, all groups of mice were euthanized at the same time using protocols approved by IACUC of City of Hope. N=6 as indicated.
# 1×10^6 cells were incubated with 10 μg of PS-GP130- or PS-c-MYC-peptide for 2 hours at 37° C. […] W76964 cells were engrafted in C57BL/6 mice to generate tumors (FIG. 29B). […] Tumor size was measured by a caliber. Tumor volume was calculated (V=(L×W×W)), where V is tumor volume, W is tumor width, L is tumor length. […]
Substance,specificity: IL-6/gp130 signaling versus EGF/EGFR signaling [1],pY-STAT3 levels / STAT3 activity (pY-STAT3),expression of survival genes survivin (BIRC5) and BclXL (BCL2L1) [2],expression of IL-6/gp130/STAT3 target genes of the acute-phase inflammatory response [3],"cell penetration, flow cytometry [4]"
"PS-1209196: phosphorothioate elongated SEQ ID NO:8, gp130 peptide phosphorylated at tyrosine 905, MPKSpYLPQTV (MPKS[pY]LPQTV; also: phosphorothioate elongation)",specifically inhibits IL-6/gp130 signaling but not EGFR signaling,inhibitory efficacy,significantly reduces,significantly reduces,–
"PS-2263163: phosphorothioate elongated SEQ ID NO:9, gp130 peptide phosphorylated at tyrosine 915, RQGGpYMPQ (RQGG[pY]MPQ; also: phosphorothioate elongation)",specifically inhibits IL-6/gp130 signaling but not EGFR signaling,inhibitory efficacy,significantly reduces,significantly reduces,–
"PS-2263165: phosphorothioate elongated SEQ ID NO:4, gp130 peptide phosphorylated at tyrosine 767, VHSGpYRHQVPS (VHSG[pY]RHQVPS; also: phosphorothioate elongation)",specifically inhibits IL-6/gp130 signaling but not EGFR signaling,inhibitory efficacy,significantly reduces,significantly reduces,–
PS-c-MYC-inhibitory peptide: phosphorothioate-conjugated c-MYC binding peptide SEQ ID NO:10 KNDTHQQDIDDLK (also: phosphorothioate-conjugated),–,–,–,–,cell penetration
